In patent US11993579B1, “3-(1-(3-(dimethylamino)propyl)-4,5-diphenyl-1h-imidazol-2-yl)pyridin-4-ol as an anti-microbial compound” (KING FAISAL UNIVERSITY, priority 2023, dated 2024):

Key:
St. Aereus = assay: Anti-microbial activity by agar dilution, St. Aereus; format: cell-based; conditions: after 10, 20, 40, and 60 min at all dilutions 1:100, 1:200, 1:400, 1:800
Experimental: (§1) The antibacterial properties of the synthesized compounds were studied by the method of agar dilution. Test solutions of each compound was prepared in a concentration of 1% using dimethylformamide as a solvent. Then the test solutions were diluted in a physiological solution to obtain the final experimental dilutions of 1:100, 1:200, 1:400, and 1:800. The effect of these substances was compared with furacillin in a controllable study. The testing microbes used were gram positive bacteria St. Aereus, gram negative bacteria E. Coli, and Ps. aeruginosa and Candida albicans fungi. The experiments used for this survey were a meat-pentonlu agar (EPA) for cultivation of bacteria and a Saburo environment for fungi. Each experiment used 1 mL of test solution on each plate for 500 min. Next, 2 drops of emulsified test solution with microbes feel were added. All experimental samples were taken from the agar after 10, 40, 60 minutes in the environment on the basis of Patrk planted. Bacteria were cultivated at a temperature of 37° C. for 1 day and the mushroom was kept in a thermostat for […] at a temperature of 28° C. Then results were checked.

E. Coli = assay: Anti-microbial activity by agar dilution, E. Coli; format: cell-based; conditions: after 10, 20, 40, and 60 min at all dilutions 1:100, 1:200, 1:400, 1:800
Experimental: as §1

Ps. Aeroqonaza = assay: Anti-microbial activity by agar dilution, Ps. Aeroqonaza; format: cell-based, Ps. aeruginosa; conditions: after 10, 20, 40, and 60 min at all dilutions 1:100, 1:200, 1:400, 1:800
Experimental: as §1

Candida albicans = assay: Anti-microbial activity by agar dilution, Candida albicans; format: cell-based; conditions: after 10, 20, 40, and 60 min at all dilutions 1:100, 1:200, 1:400, 1:800
Experimental: as §1

melting point: 137 to 139 °C
SMILES: CN(C)CCCn1c(-c2cnccc2O)nc(-c2ccccc2)c1-c1ccccc1 [3-(1-(3-(dimethylamino)propyl)-4,5-diphenyl-1H-imidazol-2-yl)pyridin-4-ol]
inhibition activity, St. Aereus (in words) (St. Aereus): showed the most inhibition activity
inhibition activity, E. Coli (in words) (E. Coli): showed the most inhibition activity
inhibition activity, Ps. aeruginosa (in words) (Ps. Aeroqonaza): showed the most inhibition activity
inhibition activity, Candida albicans (in words) (Candida albicans): showed the most inhibition activity
